# In US4156724A, “N-acylamino-alpha-arylacetamido cephalosporins and antibacterial compositions and methods containing them” (Sumitomo Chemical Company, Limited, priority 1974, dated 1979):
# Key:
# Format in all cases: cell-based
# Escherichia coli NIHJ = experiment: Minimum Inhibitory Concentration, Escherichia coli NIHJ; conditions: Escherichia coli NIHJ; for MIC: read-out: Minimum Inhibitory Concentration
# Description: (§1) anti-microbial activity tests were carried out on the compounds obtained in the Examples.
# [1] = tested on: Enterobacter aerogeneus No. 75; experiment: Minimum Inhibitory Concentration, Enterobacter aerogeneus No. 75; conditions: Enterobacter aerogeneus No. 75; for MIC: read-out: Minimum Inhibitory Concentration
# Description: as §1
# Proteus vulgaris HX 19 = experiment: Minimum Inhibitory Concentration, Proteus vulgaris HX 19; conditions: Proteus vulgaris HX 19; for MIC: HX19, read-out: Minimum Inhibitory Concentration
# Description: as §1
# [2] = tested on: Staphylococcus aureus FS 289; experiment: Minimum Inhibitory Concentration, Staphylococcus aureus FS 289; conditions: Staphylococcus aureus FS 289, strain resistant to penicillin; for MIC: FS289, read-out: Minimum Inhibitory Concentration
# Description: as §1
# *Staphylococcus aureus FS 289: strain resistant to penicillin
# [3] = tested on: Staphylococcus aureus 209 P; experiment: Minimum Inhibitory Concentration, Staphylococcus aureus 209 P; conditions: Staphylococcus aureus 209 P; for MIC: read-out: Minimum Inhibitory Concentration
# Description: as §1
# [4] = tested on: Pseudomonas aeruginosa 104; experiment: Minimum Inhibitory Concentration, Pseudomonas aeruginosa 104; conditions: Pseudomonas aeruginosa 104; for MIC: read-out: Minimum Inhibitory Concentration
# Description: as §1
# Serratia No. 72 = experiment: Minimum Inhibitory Concentration, Serratia No. 72
# Description: as §1
# [5] = tested on: Klebsiella pneumoniae 602; experiment: Minimum Inhibitory Concentration, Klebsiella pneumoniae 602; conditions: for MIC: Klebsiella pneumoniae, 602, Klebsiella pneumoniae 602, read-out: Minimum Inhibitory Concentration; for Minimum Inhibitory Concentration: Klebsiella pneumoniae 602
# Description: as §1
smiles,measurement,setting,value
Cn1nnnc1SCC1=C(C(=O)O)N2C(=O)C(NC(=O)C(NC(=O)c3cncnc3O)c3ccc(CO)cc3)C2SC1 (centres unmarked) [Example 94],MIC,Escherichia coli NIHJ,25 µg/mL
same,MIC,[1],25 µg/mL
same,MIC,Proteus vulgaris HX 19,0.78 µg/mL
same,MIC,[2],12.5 µg/mL
same,MIC,[3],0.78 µg/mL
same,MIC,[4],25 µg/mL
same,MIC,Serratia No. 72,50 µg/mL
same,MIC,[5],12.5 µg/mL
Cc1nnc(SCC2=C(C(=O)O)N3C(=O)C(NC(=O)C(NC(=O)c4cnc5cccnc5c4O)c4ccc(CO)cc4)C3SC2)s1 (centres unmarked) [Example 96],MIC,Escherichia coli NIHJ,3.13 µg/mL
same,MIC,[1],6.25 µg/mL
same,MIC,Proteus vulgaris HX 19,0.2 µg/mL
same,MIC,[2],6.25 µg/mL
same,MIC,[3],1.56 µg/mL
same,MIC,[4],6.25 µg/mL
same,MIC,Serratia No. 72,12.5 µg/mL
same,MIC,[5],1.56 µg/mL
COc1cc(C(NC(=O)c2cnc3cccnc3c2O)C(=O)NC2C(=O)N3C(C(=O)[O-])=C(COC(C)=O)CSC23)ccc1O.[Na+] (centres unmarked) [Example 143],Minimum Inhibitory Concentration,Escherichia coli NIHJ,6.25 µg/mL
same,Minimum Inhibitory Concentration,[1],12.5 µg/mL
same,Minimum Inhibitory Concentration,Proteus vulgaris HX 19,0.78 µg/mL
same,Minimum Inhibitory Concentration,[2],12.5 µg/mL
same,Minimum Inhibitory Concentration,[3],3.13 µg/mL
same,Minimum Inhibitory Concentration,[4],6.25 µg/mL
same,Minimum Inhibitory Concentration,Serratia No. 72,100 µg/mL
same,Minimum Inhibitory Concentration,[5],3.13 µg/mL
COc1ccc2ncc(C(=O)NC(C(=O)NC3C(=O)N4C(C(=O)O)=C(CSc5cnn[nH]5)CSC34)c3ccc(CO)cc3)c(O)c2n1 (centres unmarked) [Example 106],MIC,Escherichia coli NIHJ,3.13 µg/mL
same,MIC,[1],6.25 µg/mL
same,MIC,Proteus vulgaris HX 19,0.2 µg/mL
same,MIC,[2],6.25 µg/mL
same,MIC,[3],1.56 µg/mL
same,MIC,[4],6.25 µg/mL
same,MIC,Serratia No. 72,12.5 µg/mL
same,MIC,[5],1.56 µg/mL
CC(=O)OCC1=C(C(=O)[O-])N2C(=O)C(NC(=O)C(NC(=O)c3cnc4cccnc4c3O)c3cc(Cl)c(O)c(Cl)c3)C2SC1.[Na+] (centres unmarked) [Example 144],Minimum Inhibitory Concentration,Escherichia coli NIHJ,6.25 µg/mL
same,Minimum Inhibitory Concentration,[1],12.5 µg/mL
same,Minimum Inhibitory Concentration,Proteus vulgaris HX 19,1.56 µg/mL
same,Minimum Inhibitory Concentration,[2],12.5 µg/mL
same,Minimum Inhibitory Concentration,[3],3.13 µg/mL
same,Minimum Inhibitory Concentration,[4],6.25 µg/mL
same,Minimum Inhibitory Concentration,Serratia No. 72,100 µg/mL
same,Minimum Inhibitory Concentration,[5],6.25 µg/mL
Cc1nnc(SCC2=C(C(=O)O)N3C(=O)C(NC(=O)C(NC(=O)c4cnc5c(O)ccnc5c4O)c4cccc(N)c4)C3SC2)s1 (centres unmarked) [Example 76],MIC,Escherichia coli NIHJ,3.13 µg/mL
same,MIC,[1],3.13 µg/mL
same,MIC,Proteus vulgaris HX 19,0.2 µg/mL
same,MIC,[2],6.25 µg/mL
same,MIC,[3],0.78 µg/mL
same,MIC,[4],3.13 µg/mL
same,MIC,Serratia No. 72,12.5 µg/mL
same,MIC,[5],3.13 µg/mL
CC(=O)OCC1=C(C(=O)O)N2C(=O)[C@@H](NC(=O)[C@H](NC(=O)c3cnc(O)nc3O)c3ccc(NC(N)=O)cc3)[C@H]2SC1 [Example 6],MIC,Escherichia coli NIHJ,12.5 µg/mL
same,MIC,[1],25 µg/mL
same,MIC,Proteus vulgaris HX 19,0.2 µg/mL
same,MIC,[2],6.25 µg/mL
same,MIC,[3],0.39 µg/mL
same,MIC,[4],12.5 µg/mL
same,MIC,Serratia No. 72,200 µg/mL
same,MIC,[5],12.5 µg/mL
CC(=O)OCC1=C(C(=O)[O-])N2C(=O)C(NC(=O)C(NC(=O)c3ccnnc3O)c3ccc(NC(N)=O)cc3)C2SC1.[Na+] (centres unmarked) [Example 4],Minimum Inhibitory Concentration,Escherichia coli NIHJ,6.25 µg/mL
same,Minimum Inhibitory Concentration,[1],50 µg/mL
same,Minimum Inhibitory Concentration,Proteus vulgaris HX 19,0.2 µg/mL
same,Minimum Inhibitory Concentration,[2],6.25 µg/mL
same,Minimum Inhibitory Concentration,[3],0.39 µg/mL
same,Minimum Inhibitory Concentration,[4],25 µg/mL
same,Minimum Inhibitory Concentration,Serratia No. 72,100 µg/mL
same,Minimum Inhibitory Concentration,[5],6.25 µg/mL
O=C(O)C1=C(CSc2cnn[nH]2)CSC2C(NC(=O)C(NC(=O)c3cnccc3O)c3ccc(O)c(O)c3)C(=O)N12 (centres unmarked) [Example 186],MIC,Escherichia coli NIHJ,6.25 µg/mL
same,MIC,[1],12.5 µg/mL
same,MIC,Proteus vulgaris HX 19,0.78 µg/mL
same,MIC,[2],6.25 µg/mL
same,MIC,[3],0.78 µg/mL
same,MIC,[4],12.5 µg/mL
same,MIC,Serratia No. 72,50 µg/mL
same,MIC,[5],12.5 µg/mL
Nc1ccc(C(NC(=O)c2cnccc2O)C(=O)NC2C(=O)N3C(C(=O)O)=C(CSc4nnc(CO)s4)CSC23)cc1 (centres unmarked) [Example 83],MIC,Escherichia coli NIHJ,6.25 µg/mL
same,MIC,[1],12.5 µg/mL
same,MIC,Proteus vulgaris HX 19,0.2 µg/mL
same,MIC,[2],6.25 µg/mL
same,MIC,[3],0.39 µg/mL
same,MIC,[4],6.25 µg/mL
same,MIC,Serratia No. 72,50 µg/mL
same,MIC,[5],6.25 µg/mL
